Data reported in patent publication US11912701B2, “Protein kinase inhibitors for promoting liver regeneration or reducing or preventing hepatocyte death” (HEPAREGENIX GMBH, priority 2018, dated 2024).

Tests used:
Type in all cases: biochemical
MKK4 = biological target: T1, MKK4 (Homo sapiens, UniProt P45985); test: 33PanQinase enzyme assay, MKK4; conditions: assay 'IC50'; read-out: Potency MKK4 (IC50)
T1 construct: purchased ProQinase GmbH, Freiburg, Germany (33PanQinase Assay Service)
T1 sequence (P45985 1-399): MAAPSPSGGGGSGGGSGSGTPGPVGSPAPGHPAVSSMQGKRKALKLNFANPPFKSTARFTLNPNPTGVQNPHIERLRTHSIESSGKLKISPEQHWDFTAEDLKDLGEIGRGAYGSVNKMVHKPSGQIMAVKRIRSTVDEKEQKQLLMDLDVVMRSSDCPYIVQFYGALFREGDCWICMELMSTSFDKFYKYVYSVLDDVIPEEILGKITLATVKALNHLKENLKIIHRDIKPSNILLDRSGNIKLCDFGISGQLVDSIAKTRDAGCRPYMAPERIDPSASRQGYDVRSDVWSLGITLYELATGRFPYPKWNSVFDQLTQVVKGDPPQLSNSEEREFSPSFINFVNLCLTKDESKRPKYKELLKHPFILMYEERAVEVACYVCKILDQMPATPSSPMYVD
Method: (§1) The kinase activities of the compounds of the invention were measured using the 33PanQinase® Assay Service provided by ProQinase GmbH, Freiburg, Germany. Details of the assay conditions are disclosed on the website of ProQinase (https://www.proginase.com/products-services-biochemical-assay-services/kinase-assays). In brief, all kinase assays were performed in 96-well FlashPlates™ from PerkinElmer (Boston, MA, USA) in a 50 μl reaction volume. The reaction cocktail was pipetted in four steps in the following order: • 20 μl of assay buffer (standard buffer) • 5 μl of ATP solution (in H2O) • 5 μl of test compound (in 10% DMSO) • 20 μl enzyme/subtrate mix
(§2) The reaction cocktails were incubated at 30° C. for 60 minutes. The reaction is stopped with 50 μl of 2% (v/v) H3PO4, plates were aspirated and washed two times with 200 μl 0.9% (w/v) NaCl. Incorporation of ^33Pi was determined with a microplate scintillation counter (Microbeta, Wallac).
(§3) All assays were performed with a BeckmanCoulter/SAGIAN™ Core System.
(§4) In case of single concentration assays, the potency of the test compound is expressed as % residual activity. […] The fitting method used was a least-squares fit.
Inhibition potency against MKK4 is categorized as follows:
Assay at single concentration (100 nM):

BRaf = biological target: T2, BRaf (Homo sapiens, UniProt P15056); test: 33PanQinase enzyme assay, BRaf; conditions: ratio IC50(BRaf)/IC50(MKK4)
T2 construct: purchased ProQinase GmbH, Freiburg, Germany (33PanQinase Assay Service)
Method: as §1, §2, §3, §4
(§5) Selectivity of test compounds against BRaf, JNK1 and MKK7, altogether denominated as off-targets was calculated by the ratio of IC50 (off-target)/IC50 (MKK4) and categorized as follows: […]

JNK1 = JNK1 (Homo sapiens, UniProt P45983); test: 33PanQinase enzyme assay, JNK1; parameters: purchased ProQinase GmbH, Freiburg, Germany (33PanQinase Assay Service); conditions: ratio IC50(JNK1)/IC50(MKK4)
Method: as §1, §2, §3, §4, §5

MKK7 = biological target: T3, MKK7 (Homo sapiens, UniProt O14733); test: 33PanQinase enzyme assay, MKK7; parameters: purchased ProQinase GmbH, Freiburg, Germany (33PanQinase Assay Service); conditions: ratio IC50(MKK7)/IC50(MKK4)
T3 sequence (O14733 1-419): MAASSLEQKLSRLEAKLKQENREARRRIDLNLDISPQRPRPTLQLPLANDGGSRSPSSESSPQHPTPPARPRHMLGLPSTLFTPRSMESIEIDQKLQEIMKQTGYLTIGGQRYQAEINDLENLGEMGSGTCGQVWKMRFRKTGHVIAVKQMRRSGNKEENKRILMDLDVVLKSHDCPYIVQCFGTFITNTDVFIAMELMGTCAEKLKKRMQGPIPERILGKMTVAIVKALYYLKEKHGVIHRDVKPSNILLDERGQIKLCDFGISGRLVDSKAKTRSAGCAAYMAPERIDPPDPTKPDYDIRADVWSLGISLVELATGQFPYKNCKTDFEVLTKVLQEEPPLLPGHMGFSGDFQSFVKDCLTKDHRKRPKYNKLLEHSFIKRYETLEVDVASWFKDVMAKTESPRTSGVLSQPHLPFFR
Method: as §1, §2, §3, §4, §5

JNK1, sequence (P45983 whole entry): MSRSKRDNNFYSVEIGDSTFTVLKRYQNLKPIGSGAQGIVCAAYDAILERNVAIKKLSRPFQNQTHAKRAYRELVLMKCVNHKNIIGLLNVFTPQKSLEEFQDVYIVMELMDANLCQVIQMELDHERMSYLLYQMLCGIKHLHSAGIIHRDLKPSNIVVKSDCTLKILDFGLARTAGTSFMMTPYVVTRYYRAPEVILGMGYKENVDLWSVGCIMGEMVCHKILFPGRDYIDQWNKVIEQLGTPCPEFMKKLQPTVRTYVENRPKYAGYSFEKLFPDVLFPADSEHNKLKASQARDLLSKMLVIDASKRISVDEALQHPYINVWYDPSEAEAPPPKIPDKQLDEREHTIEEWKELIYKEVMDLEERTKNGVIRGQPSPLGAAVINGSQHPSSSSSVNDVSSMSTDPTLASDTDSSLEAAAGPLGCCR
T2 sequence (P15056 whole entry, species assumed): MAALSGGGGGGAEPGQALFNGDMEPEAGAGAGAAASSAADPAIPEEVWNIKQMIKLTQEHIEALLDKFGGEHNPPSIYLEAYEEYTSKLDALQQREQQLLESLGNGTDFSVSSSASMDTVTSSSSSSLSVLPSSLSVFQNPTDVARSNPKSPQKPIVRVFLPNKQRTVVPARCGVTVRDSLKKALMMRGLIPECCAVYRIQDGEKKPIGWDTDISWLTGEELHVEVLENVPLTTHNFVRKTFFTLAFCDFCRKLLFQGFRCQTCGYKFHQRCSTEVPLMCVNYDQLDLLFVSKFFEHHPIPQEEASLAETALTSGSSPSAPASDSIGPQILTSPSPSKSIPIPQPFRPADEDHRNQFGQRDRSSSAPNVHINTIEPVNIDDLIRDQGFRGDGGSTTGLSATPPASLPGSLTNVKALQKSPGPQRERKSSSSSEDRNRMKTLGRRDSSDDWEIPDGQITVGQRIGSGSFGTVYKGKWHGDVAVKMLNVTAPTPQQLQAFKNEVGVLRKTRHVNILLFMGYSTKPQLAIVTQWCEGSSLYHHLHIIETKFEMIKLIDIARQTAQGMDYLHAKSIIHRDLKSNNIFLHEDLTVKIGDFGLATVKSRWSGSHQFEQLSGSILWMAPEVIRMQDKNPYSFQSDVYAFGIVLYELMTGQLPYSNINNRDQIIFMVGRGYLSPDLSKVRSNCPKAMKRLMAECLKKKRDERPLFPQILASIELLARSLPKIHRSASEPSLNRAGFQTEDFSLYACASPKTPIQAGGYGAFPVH

Row | Structure (SMILES) | IC50 (MKK4) [µM] | Selectivity Braf, IC50(off-target)/IC50(MKK4) (BRaf) | Selectivity JNK1, IC50(off-target)/IC50(MKK4) (JNK1) | Selectivity IVIKK7, IC50(off-target)/IC50(MKK4) (MKK7)
1 | CCCS(=O)(=O)Nc1ccc(F)c(C(=O)c2c[nH]c3ncc(-c4ccc(N=S(C)(C)=O)cc4)cc23)c1F [Example 119, N-(3-(5-(4-((dimethyl(oxo)-l6-sulfaneylidene)amino)phenyl)-1H-pyrrolo[2,3-b]pyridine-3-carbonyl)-2,4-difluorophenyl)propane-1-sulfonamide] | 0.1 to 1 | ◯ (3 ≥ IC50(off-target)/IC50(MKK4)) | ◯ (3 ≥ IC50(off-target)/IC50(MKK4)) | +++ (IC50(off-target)/IC50(MKK4) > 100)
2 | CCCS(=O)(=O)Nc1ccc(F)c(C(=O)c2c[nH]c3ncc(-c4ccccc4N)cc23)c1F [Example 122, N-(3-(5-(2-aminophenyl)-1H-pyrrolo[2,3-b]pyridine-3-carbonyl)-2,4-difluorophenyl)propane-1-sulfonamide] | 0.1 to 1 | ◯ (3 ≥ IC50(off-target)/IC50(MKK4)) | ◯ (3 ≥ IC50(off-target)/IC50(MKK4)) | +++ (IC50(off-target)/IC50(MKK4) > 100)
3 | COc1ncc(-c2cnc3[nH]cc(C(=O)c4cccc(NS(=O)(=O)Cc5ccccc5)c4F)c3c2)cn1 [Example 130, N-(2-fluoro-3-(5-(2-methoxypyrimidin-5-yl)-1H-pyrrolo[2,3-b]pyridine-3-carbonyl)phenyl)-1-phenylmethanesulfonamide] | 0.1 to 1 | ++ (100 ≥ IC50(off-target)/IC50(MKK4) > 10) | ++ (100 ≥ IC50(off-target)/IC50(MKK4) > 10) | +++ (IC50(off-target)/IC50(MKK4) > 100)
4 | O=C(c1cccc(NS(=O)(=O)Cc2ccccc2)c1F)c1c[nH]c2ncc(-c3cnc(C4CC4)nc3)cc12 [Example 131, N-(3-(5-(2-cyclopropylpyrimidin-5-yl)-1H-pyrrolo[2,3-b]pyridine-3-carbonyl)-2-fluorophenyl)-1-phenylmethanesulfonamide] | 0.1 to 1 | ++ (100 ≥ IC50(off-target)/IC50(MKK4) > 10) | ++ (100 ≥ IC50(off-target)/IC50(MKK4) > 10) | +++ (IC50(off-target)/IC50(MKK4) > 100)
5 | O=C(c1cccc(NS(=O)(=O)Cc2ccccc2)c1F)c1c[nH]c2ncc(-c3cccnc3)cc12 [Example 132, N-(2-fluoro-3-(5-(pyridin-3-yl)-1H-pyrrolo[2,3-b]pyridine-3-carbonyl)phenyl)-1-phenylmethanesulfonamide] | 0.1 to 1 | ++ (100 ≥ IC50(off-target)/IC50(MKK4) > 10) | ◯ (3 ≥ IC50(off-target)/IC50(MKK4)) | +++ (IC50(off-target)/IC50(MKK4) > 100)
6 | O=C(c1ccc(F)c(NS(=O)(=O)Cc2ccccc2)c1)c1c[nH]c2ncc(-c3ccc(Cl)cc3)cc12 [Example 133, N-(5-(5-(4-chlorophenyl)-1H-pyrrolo[2,3-b]pyridine-3-carbonyl)-2-fluorophenyl)-1-phenylmethanesulfonamide] | 0.1 to 1 | ++ (100 ≥ IC50(off-target)/IC50(MKK4) > 10) | ◯ (3 ≥ IC50(off-target)/IC50(MKK4)) | +++ (IC50(off-target)/IC50(MKK4) > 100)
7 | CCCS(=O)(=O)Nc1ccc(F)c(C(=O)c2c[nH]c3ncc(N4CC(O)C4)cc23)c1F [Example 134, N-(2,4-difluoro-3-(5-(3-hydroxyazetidin-1-yl)-1H-pyrrolo[2,3-b]pyridine-3-carbonyl)phenyl)propane-1-sulfonamide] | 1 to 10 | ◯ (3 ≥ IC50(off-target)/IC50(MKK4)) | ◯ (3 ≥ IC50(off-target)/IC50(MKK4)) | ++ (100 ≥ IC50(off-target)/IC50(MKK4) > 10)
8 | CCCS(=O)(=O)Nc1ccc(F)c(C(=O)c2c[nH]c3ncc(N4CCC(=O)CC4)cc23)c1F [Example 135, N-(2,4-difluoro-3-(5-(4-oxopiperidin-1-yl)-1H-pyrrolo[2,3-b]pyridine-3-carbonyl)phenyl)propane-1-sulfonamide] | 1 to 10 | ◯ (3 ≥ IC50(off-target)/IC50(MKK4)) | ◯ (3 ≥ IC50(off-target)/IC50(MKK4)) | ++ (100 ≥ IC50(off-target)/IC50(MKK4) > 10)
9 | CCCS(=O)(=O)Nc1ccc(F)c(C(=O)c2c[nH]c3ncc(N4CCC(O)CC4)cc23)c1F [Example 136, N-(2,4-difluoro-3-(5-(4-hydroxypiperidin-1-yl)-1H-pyrrolo[2,3-b]pyridine-3-carbonyl)phenyl)propane-1-sulfonamide] | 1 to 10 | ◯ (3 ≥ IC50(off-target)/IC50(MKK4)) | ◯ (3 ≥ IC50(off-target)/IC50(MKK4)) | ++ (100 ≥ IC50(off-target)/IC50(MKK4) > 10)
10 | CCCS(=O)(=O)Nc1ccc(F)c(C(=O)c2c[nH]c3ncc(N4CC(C(=O)O)C4)cc23)c1F [Example 137, 1-(3-(2,6-difluoro-3-(propylsulfonamido)benzoyl)-1H-pyrrolo[2,3-b]pyridin-5-yl)azetidine-3-carboxylic acid] | 0.1 to 1 | ◯ (3 ≥ IC50(off-target)/IC50(MKK4)) | + (10 ≥ IC50(off-target)/IC50(MKK4) > 3) | +++ (IC50(off-target)/IC50(MKK4) > 100)
11 | CCCS(=O)(=O)Nc1ccc(F)c(C(=O)c2c[nH]c3ncc(N4CC(C)OC(C)C4)cc23)c1F (centres unmarked) [Example 138, N-(3-(5-(2,6-dimethyl-morpholino)-1H-pyrrolo[2,3-b]pyridine-3-carbonyl)-2,4-difluorophenyl)propane-1-sulfonamide] | 1 to 10 | ◯ (3 ≥ IC50(off-target)/IC50(MKK4)) | ◯ (3 ≥ IC50(off-target)/IC50(MKK4)) | ++ (100 ≥ IC50(off-target)/IC50(MKK4) > 10)
12 | CCCS(=O)(=O)Nc1ccc(F)c(C(=O)c2c[nH]c3ncc(N4CCCCC4)cc23)c1F [Example 140] | 1 to 10 | ◯ (3 ≥ IC50(off-target)/IC50(MKK4)) | ◯ (3 ≥ IC50(off-target)/IC50(MKK4)) | ++ (100 ≥ IC50(off-target)/IC50(MKK4) > 10)
13 | O=C(c1ccc(F)c(NS(=O)(=O)CCC(F)(F)F)c1F)c1c[nH]c2ncc(-c3cnc(C(F)(F)F)nc3)cc12 [Example 142, N-(2,6-difluoro-3-(5-(2-(trifluoromethyl)pyrimidin-5-yl)-1H-pyrrolo[2,3-b]pyridine-3-carbonyl)phenyl)-3,3,3-trifluoro-propane-1-sulfonamide] | < 0.1 | +++ (IC50(off-target)/IC50(MKK4) > 100) | ++·+ | +++ (IC50(off-target)/IC50(MKK4) > 100)
14 | CCCS(=O)(=O)Nc1c(F)ccc(C(=O)c2c[nH]c3ncc(-c4cccc(C#N)c4)cc23)c1F [Example 143, N-(3-(5-(3-cyanophenyl)-1-pyrrolo[2,3-b]pyridine-3-carbonyl)-2,6-difluorophenyl)propane-1-sulfonamide] | < 0.1 | +++ (IC50(off-target)/IC50(MKK4) > 100) | ++ (100 ≥ IC50(off-target)/IC50(MKK4) > 10) | +++ (IC50(off-target)/IC50(MKK4) > 100)
